Test results reported in article PMC3287010, “Pharmacokinetic Study of Di-Phenyl-Di-(2,4-Difluobenzohydroxamato)Tin(IV): Novel Metal-Based Complex with Promising Antitumor Potential” (Bioinorganic Chemistry and Applications, 2012).

Experiments:
[1] = Stability of DPDFT in rat plasma QC samples (freeze/thaw, storage, autosampler); format: in vitro ADME; conditions: 72 h at 4°C
[2] = Pharmacokinetic study in rats after single intravenous administration (HPLC-UV plasma determination, two-compartment model, 3p97 software); format: in vivo, Wistar albino rats; set-up: AUC / CL(s): unit not given here; conditions: for A / B / CL(s) / K 10 (first order elimination from compartment 1) / K 12 (first order transfer from compartment 1 to compartment 2) / K 21 (first order transfer from compartment 2 to compartment 1) / V d / t 1/2a (distribution half-life) / t 1/2β (elimination half-life) / β: mean ± SD, n = 6
Protocol: Laboratory bred adult Wistar albino rats (200–250 g), which were supplied by the Animal Research Center at Shanxi Medical University (Taiyuan, Shanxi Province, China), were housed at 25 ± 2°C in a well-ventilated animal house under 12 : 12 h light dark cycle. The animals drank sterilized drinking water, and standard chow diet was supplied ad libitum to each cage. The animal experiments were performed in accordance with the ARVO Statement for the Use of Animals in Ophthalmic and Vision Research and were approved by the Animal Ethics Committee of Shanxi Medical University.
HPLC analysis was carried out using a Waters 2695 HPLC system (Waters Associates, Milford, MA) which consisted of a photodiode array detector, an autosampler, and a degasser. The apparatus was interfaced to a DELL PC compatible computer using Empower Pro software for data acquisition. The sensitivity was 0.2 AUFS. The autosampler was cooled to 10°C. The column was maintained at room temperature. Chromatographic separation of DPDFT and the I.S. was achieved on a Diamonsil C18 column (250 mm × 4.6 mm, 5 μm) from Dikma Technologies (Beijing, China) protected by a SHIMADZU LC guard column at 25°C. The mobile phase for HPLC analysis consisted of phosphoric acid in water (solvent A)/methanol (solvent B) (30 : 70, V/V, pH 3.0) with a flow rate of 0.8 mL·min^−1. A sample volume of 20 μL was injected. Prior to use, the mobile phase was filtered through a 0.45 μm hydrophilic membrane filter. The photodiode array detector was set at a wavelength of 228 nm at room temperature. Under the chromatographic condition mentioned above, DPDFT and the I.S. acetanilide could be separated completely in the chromatograms (R > 1.5), and there was no endogenous interference with the chromatographic peak of DPDFT and the I.S.acetanilide. Besides, the retention time of acetanilide (t R = 15.67 min) was very suitable as the I.S. compared to that of DPDFT (t R = 8.34 min).
Blood samples collected from rat blood plasma were immediately transferred to 1.5 mL heparinized microcentrifuge tubes from fossa orbitalis of rats, and then processed for plasma by centrifugation. The supernatant plasma (0.2 mL) was then vortex-mixed with methanol (0.4 mL) containing acetanilide (0.2 mL, 50.0 μg·mL^−1) as internal standard (I.S.) for 30 s. After vortex-mixing, the mixture was centrifuged at 13000 rpm for 10 min 4°C to separate precipitated proteins. The supernatant solution of methanol layer was filtered through a 0.45 μm membrane filter. Twenty microliters of filtrate were injected into the chromatography. The same sample processing was also applied to the recovery and to the precision study in plasma. All harvested samples stored at −4°C were brought to room temperature before use and analyzed within one week.
To evaluate the suitability of the assay for pharmacokinetic studies, 7.5, 15, and 30 mg·kg^−1 of DPDFT were intravenously administered to rats (half males and half females, resp.). Six animals were used in each dosage by direct injection into a lateral tail vein, with a duration of infusion less than 1 min. Heparinized blood samples (0.5 mL) were collected at 0, 1, 3, 5, 10, 30, 60, and 120 min after injection. […]. After each sampling, the removed volume of blood was supplemented with an equal volume of sodium chloride. The blood samples were immediately centrifuged and the resulting plasma was prepared according to the procedure given for the calibrators. Pharmacokinetic calculations were performed using the observed data. […] All values obtained were expressed in mean ± standard deviation.

[3] = Stability of DPDFT in rat plasma QC samples (freeze/thaw, storage, autosampler); format: in vitro ADME
Protocol: Quality control (QC) samples were used to determine the accuracy and precision of method and were independently prepared at low (0.8 μg·mL^−1), medium (4 μg·mL^−1), and high (20 μg·mL^−1) concentrations. To evaluate the accuracy and precision, we used at least five QC samples of three different concentrations of DPDFT. The intraday and interday accuracies were expressed as the percentage difference between the measured concentration and the nominal concentration in rat plasma. The intraday precision and accuracy were calculated using replicate (n = 6) determinations for each concentration of the spiked plasma sample during a single analytical run. The interassay precision and accuracy were calculated using replicate (n = 6) determinations of each concentration made on three separate days. The variability of determination was expressed as the relative standard deviation (RSD) which should be ≤15%, covering the range of actual experimental concentrations.
The stability of DPDFT in rat plasma was assessed by analyzing replicates (n = 6) of QC samples at concentrations of 0.8, 4, 20 μg·mL^−1, respectively. The investigation covered the expected conditions during all of the sample storage and process periods, which included the stability data from freeze/thaw cycle and long-term stability tests. The concentrations obtained from stability studies were compared with the freshly prepared QC samples, and the percentage concentration deviation was calculated. In each freeze–thaw cycle, the samples were frozen and stored at −20°C for 10 days, then thawed at room temperature. The stability of the fresh plasma samples was tested after keeping the samples at […], −20°C and room temperature for 72 h. The stability of deproteinized samples at 10°C in the autosampler was evaluated up to 24 h.

[4] = Stability of stock solution stored at 4°C; format: physicochemical; conditions: stock solution in methanol
Protocol: A stock solution of DPDFT was prepared in methanol at the concentration of 100 mg·mL^−1 and was further diluted in HPLC mobile phase to make working standards. The I.S. stock solution was prepared and diluted to 50.0 μg·mL^−1 working solution with HPLC mobile phase. All the stock solutions were maintained at 4°C until use.
Stability of DPDFT during storage and processing was checked using quality control samples. The DPDFT and I.S. stock solutions were stable for at least 2 months when stored at 4°C. The deviation of the mean test responses was within ±10% of appropriate controls in all stability tests of DPDFT in rat plasma. After three freeze-thaw cycles, the concentration changes of DPDFT were less than 7%. The analyte was stable in the matrices at 4, −20°C and room temperature for 72 h without significant degradation (<8%).

[5] = rats, i.v., 15 mg·kg^−1 (middle)
[6] = rats, i.v., 7.5, 15, and 30 mg·kg^−1

Compound: O=C(N[O][Sn]([O]NC(=O)c1ccc(F)cc1F)([c]1ccccc1)[c]1ccccc1)c1ccc(F)cc1F [DPDFT, Di-phenyl-di-(2,4-difluobenzohydroxamato)tin(IV)]
- Accuracy = [(Cobs − Cnom)/Cnom] × 100 ([1]; nominal 4 μg·mL^−1): −7.50%
- Observed concentration ± SD ([1]; nominal 20 μg·mL^−1, n = 6): 21.14 ± 1.27 µg/mL
- DPDFT concentration in blood sample ([2]; collected at 3 min after administration of 15 mg·kg^−1, i.v.): 2.4 µg/mL
- A ([2]; rats, i.v., 7.5 mg·kg^−1 (low)): 2.21 ± 0.03 min⁻¹
- B ([2]; rats, i.v., 7.5 mg·kg^−1 (low)): 0.15 ± 0.04 mg/kg
- CL(s) ([2]; rats, i.v., 7.5 mg·kg^−1 (low)): 0.66 ± 0.05
- K 10 (first order elimination from compartment 1) ([2]; rats, i.v., 7.5 mg·kg^−1 (low)): 0.32 ± 0.05 min⁻¹
- K 12 (first order transfer from compartment 1 to compartment 2) ([2]; rats, i.v., 7.5 mg·kg^−1 (low)): 0.26 ± 0.04 min⁻¹
- K 21 (first order transfer from compartment 2 to compartment 1) ([2]; rats, i.v., 7.5 mg·kg^−1 (low)): 0.08 ± 0.004 min⁻¹
- V d ([2]; rats, i.v., 7.5 mg·kg^−1 (low)): 2.13 ± 0.07 L/kg
- t 1/2a (distribution half-life) ([2]; rats, i.v., 7.5 mg·kg^−1 (low)): 1.04 ± 0.01 min
- t 1/2β (elimination half-life) ([2]; rats, i.v., 7.5 mg·kg^−1 (low)): 17.68 ± 2.6 min
- β ([2]; rats, i.v., 7.5 mg·kg^−1 (low)): 0.04 ± 0.003 min⁻¹
- A [2, 5]: 7.94 ± 3.12 min⁻¹
- B [2, 5]: 0.92 ± 0.04 mg/kg
- CL(s) [2, 5]: 0.27 ± 0.02
- K 10 (first order elimination from compartment 1) [2, 5]: 0.24 ± 0.08 min⁻¹
- K 12 (first order transfer from compartment 1 to compartment 2) [2, 5]: 0.38 ± 0.01 min⁻¹
- K 21 (first order transfer from compartment 2 to compartment 1) [2, 5]: 0.11 ± 0.01 min⁻¹
- V d [2, 5]: 1.13 ± 0.08 L/kg
- t 1/2a (distribution half-life) [2, 5]: 1.01 ± 0.01 min
- t 1/2β (elimination half-life) [2, 5]: 19.38 ± 3.6 min
- β [2, 5]: 0.04 ± 0.003 min⁻¹
- A ([2]; rats, i.v., 30 mg·kg^−1 (high)): 22.36 ± 8.12 min⁻¹
- B ([2]; rats, i.v., 30 mg·kg^−1 (high)): 1.85 ± 0.44 mg/kg
- K 10 (first order elimination from compartment 1) ([2]; rats, i.v., 30 mg·kg^−1 (high)): 0.30 ± 0.18 min⁻¹
- K 12 (first order transfer from compartment 1 to compartment 2) ([2]; rats, i.v., 30 mg·kg^−1 (high)): 0.28 ± 0.11 min⁻¹
- K 21 (first order transfer from compartment 2 to compartment 1) ([2]; rats, i.v., 30 mg·kg^−1 (high)): 0.09 ± 0.01 min⁻¹
- V d ([2]; rats, i.v., 30 mg·kg^−1 (high)): 0.62 ± 0.08 L/kg
- t 1/2a (distribution half-life) ([2]; rats, i.v., 30 mg·kg^−1 (high)): 1.12 ± 0.1 min
- t 1/2β (elimination half-life) ([2]; rats, i.v., 30 mg·kg^−1 (high)): 16.81 ± 3.6 min
- β ([2]; rats, i.v., 30 mg·kg^−1 (high)): 0.04 ± 0.003 min⁻¹
- compartment model fitted to concentration-time data [2, 6]: two-compartment model
- difference in pharmacokinetic parameters between male and female rats [2, 6]: no significant differences
- dose linearity of pharmacokinetics ([2]; rats, i.v., from 7.5 to 30 mg/kg): nonlinear process
- deviation of the mean test responses from appropriate controls ([3]; all stability tests in rat plasma): ≤ 10%
- run-time stability (concentration change) ([3]; deproteinized rat plasma, 10°C for up to 24 h): < 6%
- Accuracy = [(Cobs − Cnom)/Cnom] × 100 ([3]; deproteinized rat plasma, autosampler 24 h at 10°C, nominal 0.8 μg·mL^−1): 3.75%
- Observed concentration ± SD ([3]; deproteinized rat plasma, autosampler 24 h at 10°C, nominal 0.8 μg·mL^−1, n = 6): 0.83 ± 0.04 µg/mL
- Accuracy = [(Cobs − Cnom)/Cnom] × 100 ([3]; deproteinized rat plasma, autosampler 24 h at 10°C, nominal 4 μg·mL^−1): −4.25%
- Observed concentration ± SD ([3]; deproteinized rat plasma, autosampler 24 h at 10°C, nominal 4 μg·mL^−1, n = 6): 3.83 ± 0.18 µg/mL
- Accuracy = [(Cobs − Cnom)/Cnom] × 100 ([3]; deproteinized rat plasma, autosampler 24 h at 10°C, nominal 20 μg·mL^−1): −4.05%
- Observed concentration ± SD ([3]; deproteinized rat plasma, autosampler 24 h at 10°C, nominal 20 μg·mL^−1, n = 6): 19.19 ± 1.08 µg/mL
- degradation in the matrices ([3]; rat plasma, 4, −20°C and room temperature for 72 h): < 8%
- Accuracy = [(Cobs − Cnom)/Cnom] × 100 ([3]; rat plasma, 72 h at 4°C, nominal 0.8 μg·mL^−1): 8.75%
- Observed concentration ± SD ([3]; rat plasma, 72 h at 4°C, nominal 0.8 μg·mL^−1, n = 6): 0.87 ± 0.04 µg/mL
- Observed concentration ± SD ([3]; rat plasma, 72 h at 4°C, nominal 4 μg·mL^−1, n = 6): 3.70 ± 0.16 µg/mL
- Accuracy = [(Cobs − Cnom)/Cnom] × 100 ([3]; rat plasma, 72 h at 4°C, nominal 20 μg·mL^−1): 5.70%
- Accuracy = [(Cobs − Cnom)/Cnom] × 100 ([3]; rat plasma, 72 h at room temperature, nominal 0.8 μg·mL^−1): −2.50%
- Observed concentration ± SD ([3]; rat plasma, 72 h at room temperature, nominal 0.8 μg·mL^−1, n = 6): 0.78 ± 0.05 µg/mL
- Accuracy = [(Cobs − Cnom)/Cnom] × 100 ([3]; rat plasma, 72 h at room temperature, nominal 4 μg·mL^−1): −3.25%
- Observed concentration ± SD ([3]; rat plasma, 72 h at room temperature, nominal 4 μg·mL^−1, n = 6): 3.87 ± 0.19 µg/mL
- Observed concentration ± SD ([3]; rat plasma, 72 h at room temperature, nominal 20 μg·mL^−1, n = 6): 19.46 ± 1.19 µg/mL
- Accuracy = [(Cobs − Cnom)/Cnom] × 100 ([3]; rat plasma, 72 h at −20°C, nominal 0.8 μg·mL^−1): −7.50%
- Observed concentration ± SD ([3]; rat plasma, 72 h at −20°C, nominal 0.8 μg·mL^−1, n = 6): 0.74 ± 0.05 µg/mL
- Accuracy = [(Cobs − Cnom)/Cnom] × 100 ([3]; rat plasma, 72 h at −20°C, nominal 4 μg·mL^−1): 5.50%
- Observed concentration ± SD ([3]; rat plasma, 72 h at −20°C, nominal 4 μg·mL^−1, n = 6): 4.22 ± 0.12 µg/mL
- Accuracy = [(Cobs − Cnom)/Cnom] × 100 ([3]; rat plasma, 72 h at −20°C, nominal 20 μg·mL^−1): −4.35%
- Observed concentration ± SD ([3]; rat plasma, 72 h at −20°C, nominal 20 μg·mL^−1, n = 6): 19.13 ± 1.53 µg/mL
- concentration changes after three freeze-thaw cycles ([3]; rat plasma, frozen at −20°C, thawed at room temperature): less than 7%
- Accuracy = [(Cobs − Cnom)/Cnom] × 100 ([3]; rat plasma, three freeze and thaw cycles, nominal 0.8 μg·mL^−1): −5.00%
- Observed concentration ± SD ([3]; rat plasma, three freeze and thaw cycles, nominal 0.8 μg·mL^−1, n = 6): 0.76 ± 0.05 µg/mL
- Accuracy = [(Cobs − Cnom)/Cnom] × 100 ([3]; rat plasma, three freeze and thaw cycles, nominal 4 μg·mL^−1): −5.25%
- Observed concentration ± SD ([3]; rat plasma, three freeze and thaw cycles, nominal 4 μg·mL^−1, n = 6): 3.79 ± 0.13 µg/mL
- Accuracy = [(Cobs − Cnom)/Cnom] × 100 ([3]; rat plasma, three freeze and thaw cycles, nominal 20 μg·mL^−1): −5.15%
- Observed concentration ± SD ([3]; rat plasma, three freeze and thaw cycles, nominal 20 μg·mL^−1, n = 6): 18.97 ± 1.17 µg/mL
- time stock solution was stable [4]: at least 2 months
